“And” between values parts separate entries of the source, which are not always exact repeats. Identical values can stand only once.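 96-well plates; 48 h exposure; 5 concentrations. Endpoints by linear interpolation between flanking doses. Not reached: highest tested concentration assigned. GI50 is the concentration that inhibits growth by half. TGI: total growth inhibition.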

Results on 17 compounds are retold here after PubChem BioAssay (NCI).

Experiment in all cases: DTP human tumour cell line panel, 48 h
The subject of assay [1] is A498 renal.
In assay [2] the test system is A549 NSCLC.
Assay [3] concerns CAKI-1 renal.
Assay [4] concerns HCC-2998 colon.
For assay [5], the system named is HCT-116 colon.
The subject of assay [6] is HOP-62 NSCLC.
In assay [7] the test system is M14 melanoma.
For assay [8], the system named is SNB-75 CNS.
Assay [9] relates to TK-10 renal.
Assay [10] relates to UACC-257 melanoma.

In the case of `Cc1nc(/N=C(\N)NC(=O)Nc2ccccc2Cl)sc1C`, the GI50 (usually the concentration at which growth is held to half of that of the control) in assay [1] was 0.249 µM; in [2], 0.675 µM; in assay [3], 0.435 µM; in assay [4], 1.25 µM; in assay [5], 0.402 µM; in assay [6], 0.505 µM. For the same compound, the GI50 is 0.314 µM in assay [7], 0.226 µM in assay [8], 1.84 µM in assay [9] and 1.44 µM in [10]. Also, the total growth inhibition concentration (TGI) – broadly, the concentration giving total growth inhibition – in assay [1] was 1.1 µM; in [2], greater than 100 µM; in assay [3] it was 9.41 µM; in assay [4] it was greater than 100 µM; in assay [6], 2.84 µM; in [7], 18.7 µM. Further, the TGI was 0.91 µM in assay [8], 6.41 µM in [9] and greater than 100 µM in assay [10].
For the compound `C/C(=C\CCc1ccoc1)CC/C=C(\C)CCCN1CCC(CO)CC1`, the GI50 was 1.96 µM in assay [1]; 3.26 µM in [2]; 4.26 µM in [3]; 2.1 µM in [4]; 2.96 µM in [5]; 3.39 µM in assay [6]. Moreover, the GI50 in assay [7] is 1.94 µM; in assay [8], 2.1 µM; in assay [9], 2.41 µM; in assay [10], 2.16 µM. Besides, the TGI in [1] amounted to 5.96 µM; in [2] it was 13.8 µM; in assay [3] it was 16.5 µM; in [4], 4.03 µM; in assay [5], 10.4 µM; in [6], 9.6 µM. For the same compound, the TGI was 3.92 µM in [7], 7.79 µM in assay [8], 6.54 µM in assay [9] and 5.12 µM in [10].
For `c1ccc(-c2nn(-c3ccccc3)[n+](-c3cccc4ccccc34)n2)cc1`, the GI50 in assay [1] was 2.91 µM; in [2], 2.65 µM; in assay [3], 37.1 µM; in assay [4] it was 1.91 µM; in [5], 0.708 µM; in assay [6], 1.39 µM. The GI50 in assay [7] was 3.09 µM; in [8], 1.94 µM; in [9], 8.53 µM; in assay [10] it was 0.48 µM. In addition, the TGI in assay [1] was 33.8 µM; in [2] it was greater than 100 µM; in [3], greater than 100 µM; in assay [4], 14.8 µM; in assay [5] it was 17.9 µM; in [6], 33.2 µM. For the same compound, the TGI in assay [7] was 23.1 µM; in assay [8], 14.8 µM; in assay [9], 73.6 µM; in assay [10], 8.18 µM.
`N#Cc1c(-c2ccccc2)cc(-c2ccccc2)n(CCCCC(=O)NO)c1=O`: the GI50 is 1.25 µM in assay [1]; 3.29 µM in assay [2]; 1.61 µM in assay [3]; 2.65 µM in assay [4]; 2.37 µM in [5]; 2.24 µM in assay [6]. For the same compound, the GI50 in assay [7] was 2.76 µM; in [8] it was 1.61 µM; in assay [9], 2.5 µM; in [10], 2.15 µM. In addition, the TGI in [1] stood at 3.55 µM; in assay [2], 15.7 µM; in [3], 3.9 µM; in [4] it was 10.8 µM; in [5], 10.1 µM; in [6] it was 7.35 µM. Moreover, the TGI turned out to be 11.6 µM in assay [7], 9.07 µM in assay [8], 11.2 µM in [9] and 12.4 µM in [10].
Turning to `CC(=O)OCC1OC(OC2=C(CC=C(Cl)Cl)C(=O)c3ccccc3C2=O)C(OC(C)=O)C(OC(C)=O)C1OC(C)=O` (stereo not drawn), the GI50 in assay [1] is 3.32 µM; in assay [2], 19.5 µM; in assay [3], 4.91 µM; in [4], 6.96 µM; in [5], 1.74 µM; in [6] it was 18.5 µM. The GI50 in [7] was 12.6 µM; in assay [8], 2.68 µM; in assay [9], 9.61 µM; in assay [10] it was 8.45 µM. Moreover, the TGI in assay [1] was found to be 20 µM; in assay [2], 41.4 µM; in assay [3], 17.6 µM; in [4] it was 20.9 µM; in [5], 3.92 µM; in assay [6] it was 34.4 µM. Besides, the TGI stood at 28 µM in assay [7], 19.9 µM in assay [8], 21.5 µM in [9] and 21.4 µM in assay [10].
For the compound `CCCCN(CCCC)CCCN=c1nc2c(c(N)n1-c1ccccc1)c(=S)n(-c1ccccc1)c(=S)n2-c1ccccc1`, the GI50 in assay [1] is 1.06 µM; in assay [2] it was 1.46 µM; in assay [3], 0.384 µM; in [4] it was 0.825 µM; in assay [5], 0.412 µM; in assay [6] it was 1.45 µM. Moreover, the 50% growth inhibitory concentration (GI50) is 0.206 µM in assay [7], 0.719 µM in [8], 1.28 µM in assay [9] and 0.609 µM in assay [10]. For the same compound, the TGI in assay [1] is 2.39 µM; in assay [2], 3.48 µM; in assay [3], 1.49 µM; in assay [4], 2.52 µM; in assay [5] it was 1.5 µM; in assay [6], 3.03 µM. Besides, the TGI stood at 0.424 µM in assay [7], 2.11 µM in [8], 2.69 µM in assay [9] and 1.27 µM in [10].
As to `N#CCC(=O)N/N=C1\C(=O)N(c2ccc(Cl)cc2)C(=O)C(=O)C1c1nc2ccccc2o1` (stereo not drawn), the TGI in assay [1], in assay [2], in [3], in assay [4], in assay [5] and in assay [6] was greater than 100 µM each time. Also, the TGI in assay [7], in assay [8], in assay [9] and in [10] was greater than 100 µM in each case.
In the case of `O=C(O)CCC1(Br)CCCCC(Br)C1=O` (stereo not drawn), the TGI in assay [1], in assay [2], in [3], in assay [4], in assay [5] and in assay [6] was greater than 100 µM in each case. Besides, the TGI in assay [7], in assay [8], in [9] and in assay [10] was greater than 100 µM in each case.
Consider `CC(C)(C)[Si](C)(C)O/N=C\c1ccc(O[Si](C)(C)C(C)(C)C)cc1`, for which the TGI in [1] is greater than 100 µM; in assay [2] it was greater than 100 µM; in assay [3], greater than 100 µM; in assay [4], greater than 100 µM; in [5] it was 63 µM; in [6], greater than 100 µM. For the same compound, the TGI in assay [7], in [8], in [9] and in assay [10] was greater than 100 µM throughout.
Take `COC(=O)[C@H](CC(C)C)NC(=O)NC(=O)NC(=O)CI`: the GI50 was 17.7 µM in assay [1]; 20.3 µM in assay [2]; 1.06 µM in assay [3]; 11.4 µM in assay [4]; 10 µM in assay [5]; 18.2 µM in assay [6]. Besides, the GI50 was 2.03 µM in assay [7], 11.9 µM in assay [8], 1.72 µM in assay [9] and 7.76 µM in assay [10]. For the same compound, the TGI in assay [1] stood at 32.6 µM; in [2] it was 39.6 µM; in assay [3], 2.23 µM; in assay [4], 24.2 µM; in [5] it was 22.8 µM; in [6], 34.2 µM. For the same compound, the TGI came to 4.94 µM in assay [7], 28.6 µM in [8], 3.62 µM in [9] and 20.3 µM in [10].
For the compound `N#Cc1c(NC(=O)CN2CCOCC2)sc2c1CCCC2`, the GI50 in assay [1] is 3.2 µM; in assay [2] it was greater than 25 µM; in [3], greater than 25 µM; in [4], greater than 25 µM; in assay [5], greater than 25 µM; in assay [6], greater than 25 µM. The GI50 in assay [7], in [8], in assay [9] and in assay [10] was greater than 25 µM throughout. For the same compound, the TGI in [1], in assay [2], in assay [3], in assay [4], in assay [5] and in assay [6] was greater than 25 µM in each case. Besides, the TGI in assay [7], in assay [8], in assay [9] and in assay [10] was greater than 25 µM each time.
Consider `CN(C)CCCNc1nccc(-c2c(-c3ccc(F)cc3)nn3cc(C(F)(F)F)ccc23)n1`, for which the GI50 in [1] was 6.53 µM; in [2], greater than 21.5 µM; in assay [3] it was 12.3 µM; in assay [4], 4.54 µM; in [5], 8.66 µM; in assay [6], 8.53 µM. For the same compound, the GI50 in assay [7] is 4.37 µM; in assay [8], 5.97 µM; in assay [9] it was 12.9 µM; in assay [10], 4.22 µM. Moreover, the TGI in [1] was greater than 25 µM; in assay [2], greater than 25 µM; in assay [3], greater than 25 µM; in assay [4], 15 µM; in [5] it was greater than 25 µM; in [6], greater than 25 µM. The TGI in [7] was 9.06 µM; in assay [8], greater than 16.9 µM; in assay [9], greater than 25 µM; in assay [10] it was 8.42 µM.
For the compound `CC1=C(/C=C/C(C)=C/C=C/C(C)=C/C(=O)Nc2ccc(O)cc2)C(C)(C)CCC1`, the GI50 is 1.96 µM in assay [1]; 2.43 µM in assay [2]; 3.87 µM in assay [3]; 2.12 µM in assay [4]; 2.05 µM in assay [5]; 4.05 µM in [7]. Further, the GI50 in assay [8] is 1.81 µM; in [9], 5.07 µM; in assay [10] it was 4.55 µM. Also, the TGI in assay [1] is 9.07 µM and 19.1 µM; in assay [2] it was 14.2 µM and 26.5 µM; in assay [3], 15.8 µM and 13.6 µM; in [4], 5.97 µM and 18 µM; in [5] it was 4.6 µM and 15.7 µM; in [6], 9.95 µM and 15.2 µM. For the same compound, the TGI was 12.7 µM and 18.7 µM in assay [7]; 5.85 µM and 23.2 µM in assay [8]; 15.5 µM and 35.4 µM in assay [9]; 17.4 µM and 24 µM in [10].
As for `Clc1ccc(OC2CCO2)cc1Cl` (stereo not drawn), the TGI in assay [1], in [2], in assay [3], in assay [4], in assay [5] and in [6] was greater than 100 µM each time. In addition, the TGI in assay [7], in assay [8], in [9] and in assay [10] was greater than 100 µM each time.
As for `COC(=O)c1ccc([N+](=O)[O-])c(O)c1`, the TGI in assay [1], in [2], in assay [3], in assay [4], in [5] and in [6] was greater than 100 µM throughout. Also, the TGI in assay [7], in assay [8], in assay [9] and in assay [10] was greater than 100 µM each time.
For `O=C1/C(=C\c2coc3ccccc3c2=O)c2ccccc2N1c1c(Cl)cccc1Cl`, the GI50 is 4.35 µM in [1]; 4.24 µM in [2]; 2.45 µM in assay [3]; 5.33 µM in assay [4]; 2.01 µM in assay [5]; 4.77 µM in assay [6]. The GI50 in assay [7] is 5.28 µM; in assay [8] it was 1.91 µM; in [9] it was 3.29 µM; in [10], 4.59 µM. For the same compound, the TGI was greater than 100 µM in assay [1]; greater than 100 µM in [2]; greater than 100 µM in assay [3]; greater than 100 µM in assay [4]; 14.5 µM in [5]; greater than 100 µM in [6]. The TGI in assay [7] is 97.4 µM; in assay [8] it was 37.4 µM; in assay [9] it was greater than 100 µM; in [10], greater than 100 µM.
Regarding `C#COc1cccc(Nc2ncnc3ncc(NC(=O)CCl)cc23)c1`, the GI50 in [1] was greater than 62.5 µM; in assay [2] it was greater than 13.8 µM; in [3] it was greater than 15.2 µM; in assay [4], greater than 62.5 µM; in assay [5] it was 0.239 µM; in [6], greater than 62.5 µM. Moreover, the GI50 in assay [7] is 50.5 µM; in assay [8], greater than 60.1 µM; in assay [9], 62 µM; in assay [10] it was greater than 62.5 µM. In addition, the TGI in assay [1], in assay [2], in [3], in assay [4], in assay [5] and in [6] was greater than 62.5 µM each time. The TGI in assay [7], in [8], in assay [9] and in assay [10] was greater than 62.5 µM in each case.
